In patent US20260132129A1 (Genesis Therapeutics, Inc., priority 2022, published 2026):

Molecular target: T1, PI3Kα H1047R (T47D cells) (Homo sapiens, UniProt P42336, H1047R)
T1 construct: endogenous in cells; host or cells: T47D cells
Test: PI3Kα cellular assay: pAKT HTRF in T47D cells after EGF stimulation
Type: cell-based
Conditions: for IC50: T47D cells (PI3Kα H1047R), pAKT S473 HTRF, EGF stimulation; for T47D pAKT S473 HTRF IC50 (H1047R): T47D (H1047R) selectivity over SKBR3 (WT): selectivity of T47D (H1047R) over SKBR3 (WT) pAKT IC50
Outline: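 T47D cells (PIK3CA H1047R) serum-starved 16 h, then treated 1 h at 37 °C with compound (10,000 nM top, 3-fold steps to 0.5 nM). After 10 min stimulation with 20 ng/mL EGF, cells were lysed and pAKT measured by HTRF.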

T1 sequence (P42336 whole entry H1047R): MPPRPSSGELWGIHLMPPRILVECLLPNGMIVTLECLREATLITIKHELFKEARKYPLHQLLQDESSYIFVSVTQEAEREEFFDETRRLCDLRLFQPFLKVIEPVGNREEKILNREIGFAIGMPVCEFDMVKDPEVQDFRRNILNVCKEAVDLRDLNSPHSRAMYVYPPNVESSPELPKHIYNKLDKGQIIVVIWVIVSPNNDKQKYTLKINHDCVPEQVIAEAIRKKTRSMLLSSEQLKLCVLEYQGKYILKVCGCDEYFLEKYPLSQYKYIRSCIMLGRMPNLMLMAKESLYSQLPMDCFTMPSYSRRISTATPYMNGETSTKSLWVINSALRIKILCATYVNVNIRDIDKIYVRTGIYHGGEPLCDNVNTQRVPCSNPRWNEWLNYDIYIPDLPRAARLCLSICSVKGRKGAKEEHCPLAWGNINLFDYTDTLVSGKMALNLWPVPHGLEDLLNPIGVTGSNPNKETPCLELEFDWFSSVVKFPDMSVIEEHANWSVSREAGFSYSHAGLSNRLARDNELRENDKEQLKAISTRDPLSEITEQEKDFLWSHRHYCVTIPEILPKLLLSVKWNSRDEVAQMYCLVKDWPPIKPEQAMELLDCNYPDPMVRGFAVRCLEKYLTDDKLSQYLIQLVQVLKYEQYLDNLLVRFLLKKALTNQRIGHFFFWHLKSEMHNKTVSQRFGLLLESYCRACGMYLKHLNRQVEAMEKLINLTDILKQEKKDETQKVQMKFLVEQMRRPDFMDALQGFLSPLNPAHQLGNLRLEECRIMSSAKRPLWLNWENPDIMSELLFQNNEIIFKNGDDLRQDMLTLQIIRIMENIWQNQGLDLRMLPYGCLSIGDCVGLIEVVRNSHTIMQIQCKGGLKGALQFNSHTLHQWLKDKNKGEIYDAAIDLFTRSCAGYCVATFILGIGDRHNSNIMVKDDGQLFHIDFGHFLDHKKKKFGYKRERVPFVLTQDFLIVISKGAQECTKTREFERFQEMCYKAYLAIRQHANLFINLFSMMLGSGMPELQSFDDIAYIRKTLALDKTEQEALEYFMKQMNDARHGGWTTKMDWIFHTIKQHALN
T1 sequence (P27986 whole entry partner): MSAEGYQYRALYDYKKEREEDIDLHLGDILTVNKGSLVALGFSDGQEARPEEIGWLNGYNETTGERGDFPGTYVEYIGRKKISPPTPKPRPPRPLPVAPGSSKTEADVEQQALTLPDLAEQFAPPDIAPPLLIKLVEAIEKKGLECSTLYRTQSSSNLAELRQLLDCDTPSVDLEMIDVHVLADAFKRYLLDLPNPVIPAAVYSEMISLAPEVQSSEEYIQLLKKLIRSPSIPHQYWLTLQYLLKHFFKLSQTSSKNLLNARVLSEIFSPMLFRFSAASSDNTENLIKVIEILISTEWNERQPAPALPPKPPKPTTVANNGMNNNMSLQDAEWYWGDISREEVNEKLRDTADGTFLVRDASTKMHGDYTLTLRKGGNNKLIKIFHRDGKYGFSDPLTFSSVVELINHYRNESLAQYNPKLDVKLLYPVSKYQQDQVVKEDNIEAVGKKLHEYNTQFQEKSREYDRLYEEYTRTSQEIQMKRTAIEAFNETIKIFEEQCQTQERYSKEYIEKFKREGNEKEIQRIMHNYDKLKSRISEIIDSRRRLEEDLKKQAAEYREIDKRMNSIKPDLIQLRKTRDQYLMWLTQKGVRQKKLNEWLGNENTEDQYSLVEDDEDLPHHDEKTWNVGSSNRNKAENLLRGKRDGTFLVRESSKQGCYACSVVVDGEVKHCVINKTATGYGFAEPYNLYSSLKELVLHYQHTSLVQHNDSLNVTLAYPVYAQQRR

Row | Compound | IC50 [nM] | T47D pAKT S473 HTRF IC50 (H1047R): T47D (H1047R) selectivity over SKBR3 (WT)
1 | CC1=NC(C)c2cc(-c3cc(=O)n4cc(C)cc([C@@H](C)Nc5ccccc5C(=O)O)c4n3)ccc21 (some centres unmarked) [Compound 752] | – | C (C denotes ≤5-fold)
2 | Cc1cc(C(C)NC2=C(C(=O)O)C=CCC2)c2nc(-c3ccc(CC4CCN(C(=O)C5CC5)CC4)nc3)cc(=O)n2c1 (centres unmarked) [Compound 759] | – | C (C denotes ≤5-fold)
3 | Cc1cc([C@H](C)Nc2ccccc2C(=O)O)c2nc(-c3ccc4c(c3)CC(=O)N4)cc(=O)n2c1 [Compound 764] | – | A (A denotes >20-fold)
4 | Cc1cc([C@H](C)Nc2ccccc2C(=O)O)c2nc(-c3ccc4c(c3)CC(=O)N4)cc(=O)n2c1 [Compound 766] | – | C (C denotes ≤5-fold)
5 | Cc1cc([C@H](C)Nc2ccccc2C(=O)O)c2nc(-n3cc(C(N)=O)c4ccccc43)cc(=O)n2c1 [Compound 772] | > 2000 | C (C denotes ≤5-fold)
6 | Cc1cc([C@H](C)Nc2ccccc2C(=O)O)c2nc(-n3cnc4cc(O)ccc43)cc(=O)n2c1 [Compound 774] | > 2000 | C (C denotes ≤5-fold)
7 | CC1=CC2C(=O)C=C([C@H]3CC[C@H](CC4CC[C@H](O)C4)CC3)N=C2C([C@H](C)Nc2ccccc2C(=O)O)=C1 (some centres unmarked) [Compound 778] | > 2000 | C (C denotes ≤5-fold)
8 | Cc1cc(C(C)Nc2cccc3c2=NCN=3)c2nc(N3CCOCC3)cc(=O)n2c1 (centres unmarked) [Compound 782] | > 2000 | C (C denotes ≤5-fold)
9 | Cc1cc([C@@H](C)NC2=C(C(=O)O)C=CCC2)c2nc(-c3ccc(CC4CCN(C(=O)C5CC5)CC4)nc3)cc(=O)n2c1 [Compound 783] | > 2000 | C (C denotes ≤5-fold)
10 | Cc1cc([C@H](C)NC2=C(C(=O)O)C=CCC2)c2nc(-c3ccc(CC4CCN(C(=O)C5CC5)CC4)nc3)cc(=O)n2c1 [Compound 784] | > 2000 | C (C denotes ≤5-fold)
11 | Cc1cc([C@H](C)Nc2ccccc2C(=O)O)c2nc(-c3ccc4c(c3)c(N)nn4C)cc(=O)n2c1 [Compound 786] | > 2000 | C (C denotes ≤5-fold)
12 | Cc1cc([C@@H](C)Nc2ccccc2C(=O)O)c2nc(-c3ccc4c(c(N)nn4C)c3C)c(C)c(=O)n2c1 [Compound 787] | > 2000 | C (C denotes ≤5-fold)
13 | Cc1cc(C(C)Nc2ccccc2C(=O)O)c2nc(-c3ccc4c(c3)c(=O)[nH]n4C)cc(=O)n2c1 (centres unmarked) [Compound 790] | > 2000 | C (C denotes ≤5-fold)
14 | CCC(=O)Nc1ccc(C(=O)O)c(NC(C)c2cc(C)cn3c(=O)cc(N4CCOCC4)nc23)c1 (centres unmarked) [Compound 791] | > 2000 | C (C denotes ≤5-fold)
15 | CC(=O)Nc1nn(C)c2ccc(-c3cc(=O)n4cc(C)cc(C(C)Nc5ccccc5C(=O)O)c4n3)cc12 (centres unmarked) [Compound 792] | > 2000 | C (C denotes ≤5-fold)
16 | CC(=O)Nc1nn(C)c2ccc(-c3cc(=O)n4cc(C)cc([C@@H](C)Nc5ccccc5C(=O)O)c4n3)cc12 [Compound 793] | > 2000 | C (C denotes ≤5-fold)
17 | C=C(C)N1CCC([C@@H]2C[C@@H]3CN(c4cc(=O)n5cc(C)cc([C@H](C)Nc6ccccc6C(=O)O)c5n4)C[C@@H]3C2)CC1 [Compound 796] | > 2000 | C (C denotes ≤5-fold)
18 | Cc1cc([C@@H](C)Nc2ccccc2C(=O)O)c2nc(-c3ccc4c(c3)c(C)cn4C)cc(=O)n2c1 [Compound 797] | > 2000 | C (C denotes ≤5-fold)
19 | Cc1cc(C(C)Nc2ccccc2C(=O)O)c2nc(-n3cnc4ccc(O)cc43)cc(=O)n2c1 (centres unmarked) [Compound 799] | > 2000 | C (C denotes ≤5-fold)
20 | Cc1cc(C(C)Nc2ccccc2C(=O)O)c2nc(-n3cnc4ccc(O)cc43)cc(=O)n2c1 (centres unmarked) [Compound 801] | > 2000 | C (C denotes ≤5-fold)
21 | Cc1cc([C@@H](C)Nc2cccc3nonc23)c2nc(N3CCOCC3)cc(=O)n2c1 [Compound 802] | > 2000 | C (C denotes ≤5-fold)
22 | Cc1cc([C@H](C)Nc2ccccc2C(=O)O)c2nc(-c3cnc4c(c3)c(C)c(C)n4C)c(C)c(=O)n2c1 [Compound 805] | > 2000 | C (C denotes ≤5-fold)
23 | Cc1cc(CCNc2ccc(F)cc2C(=O)O)c2nc(N3CCOCC3)cc(=O)n2c1 [Compound 806] | > 2000 | C (C denotes ≤5-fold)
24 | Cc1cc([C@H](C)Nc2ccccc2C(=O)O)c2nc(-c3ccc4c(c3)c(C(F)F)nn4C)cc(=O)n2c1 [Compound 808] | > 2000 | C (C denotes ≤5-fold)

More lines, now with the values ahead:

Row | IC50 [nM] | T47D pAKT S473 HTRF IC50 (H1047R): T47D (H1047R) selectivity over SKBR3 (WT) | Compound
25 | > 2000 | C (C denotes ≤5-fold) | Cc1cc([C@H](C)Nc2ccccc2C(=O)O)c2nc(-c3ccc4c(c3)c(C3CC3)nn4C)cc(=O)n2c1 [Compound 749]
26 | 500 to 2000 | B (B denotes 20-fold≥value>5-fold) | Cc1cc(C(C)Nc2ccccc2C(=O)O)c2nc(-c3cc(C(N)=O)c4[nH]ccc4c3)cc(=O)n2c1 (centres unmarked) [Compound 753]
27 | > 2000 | C (C denotes ≤5-fold) | Cc1cc([C@H](C)Nc2ccccc2C(=O)O)c2nc(-c3cc(C(N)=O)c4[nH]ccc4c3)cc(=O)n2c1 [Compound 754]
28 | > 2000 | C (C denotes ≤5-fold) | Cc1cc([C@@H](C)Nc2ccccc2C(=O)O)c2nc(C3CCN(S(N)(=O)=O)CC3)cc(=O)n2c1 [Compound 755]
29 | > 2000 | C (C denotes ≤5-fold) | Cc1cc([C@H](C)Nc2ccccc2C(=O)O)c2nc(C3CCN(S(N)(=O)=O)CC3)cc(=O)n2c1 [Compound 756]
30 | > 2000 | C (C denotes ≤5-fold) | Cc1cc(C(C)Nc2ccccc2C(=O)O)c2nc(-c3ccc4c(c3)C(C)NN4C)cc(=O)n2c1 (centres unmarked) [Compound 757]
31 | 100 to 500 | A (A denotes >20-fold) | CNc1nn(C)c2ccc(-c3cc(=O)n4cc(C)cc(C(C)Nc5ccccc5C(=O)O)c4n3)cc12 (centres unmarked) [Compound 758]
32 | < 100 | A (A denotes >20-fold) | Cc1cc([C@@H](C)Nc2ccccc2C(=O)O)c2nc(-c3cnc4c(c3)c(C)nn4C)c(C)c(=O)n2c1 [Compound 762]
33 | 500 to 2000 | B (B denotes 20-fold≥value>5-fold) | Cc1cc([C@H](C)Nc2ccccc2C(=O)O)c2nc(-c3cnc4c(c3)c(C)nn4C)c(C)c(=O)n2c1 [Compound 763]
34 | < 100 | A (A denotes >20-fold) | CNc1nn(C)c2ccc(-c3cc(=O)n4cc(C)cc([C@@H](C)Nc5ccccc5C(=O)O)c4n3)cc12 [Compound 767]
35 | 100 to 500 | A (A denotes >20-fold) | CNc1nn(C)c2ccc(-c3cc(=O)n4cc(C)cc([C@H](C)Nc5ccccc5C(=O)O)c4n3)cc12 [Compound 768]
36 | 100 to 500 | A (A denotes >20-fold) | Cc1cc(C(C)Nc2ccccc2C(=O)O)c2nc(-c3ccc4c(c3)c(C(F)F)nn4C)cc(=O)n2c1 (centres unmarked) [Compound 769]
37 | 500 to 2000 | B (B denotes 20-fold≥value>5-fold) | Cc1cc(C(C)Nc2ccccc2C(=O)O)c2nc(-n3cc(C(N)=O)c4ccccc43)cc(=O)n2c1 (centres unmarked) [Compound 771]
38 | 500 to 2000 | B (B denotes 20-fold≥value>5-fold) | Cc1cc(C(C)Nc2ccccc2C(=O)O)c2nc(-n3cnc4cc(O)ccc43)cc(=O)n2c1 (centres unmarked) [Compound 773]
39 | < 100 | A (A denotes >20-fold) | Cc1cc([C@@H](C)Nc2ccccc2C(=O)O)c2nc(-c3ccc4c(c3)c(C)c(C)n4C)cc(=O)n2c1 [Compound 775]
40 | 100 to 500 | A (A denotes >20-fold) | Cc1cc(C(C)Nc2ccccc2C(=O)O)c2nc(N3C[C@H](C)C[C@H](C(F)F)C3)cc(=O)n2c1 (some centres unmarked) [Compound 781]
41 | < 100 | A (A denotes >20-fold) | Cc1cc([C@@H](C)Nc2ccccc2C(=O)O)c2nc(-c3ccc4c(c3)c(N)nn4C)c(C)c(=O)n2c1 [Compound 785]
42 | 100 to 500 | A (A denotes >20-fold) | Cc1cc([C@H](C)Nc2ccccc2C(=O)O)c2nc(-c3ccc4c(c(N)nn4C)c3C)c(C)c(=O)n2c1 [Compound 788]
43 | 100 to 500 | A (A denotes >20-fold) | C=C(C)Nc1nn(C)c2ccc(-c3cc(=O)n4cc(C)cc([C@H](C)Nc5ccccc5C(=O)O)c4n3)cc12 [Compound 794]
44 | < 100 | A (A denotes >20-fold) | Cc1cc([C@H](C)Nc2ccccc2C(=O)O)c2nc(-c3ccc4c(c3)c(C)cn4C)cc(=O)n2c1 [Compound 798]
45 | < 100 | A (A denotes >20-fold) | Cc1cc([C@@H](C)Nc2ccccc2C(=O)O)c2nc(-c3ccc4snc(N)c4c3)cc(=O)n2c1 [Compound 809]
